Assay results from patent US20150089682A1, “ALS Inhibitor Herbicide Tolerant B. Napus Mutants” (priority 2012, published 2015).

How the values were obtained:
[1] = tested on: spring oilseed rape homozygous for HETO108 and HETO121; assay: Herbicide tolerance in the field, visible phytotoxicity; type: in vivo, Brassica napus; settings: for pest or weed control at 50 g/ha: AI dose rate 50 gai/ha
Excerpt: (§1) Seeds of spring oilseed rape homozygous for HETO108 and HETO121 were sown in a field according to typical practical agricultural methods. The registered spring oilseed rape variety ABILITY served as a comparison. All plants were cultivated up to BBCH stage 14 (four true leaves of the oilseed rape plants). Afterwards, the herbicides mentioned in table 2 have been applied to the oilseed rape plants by using specific spray equipment for small plot applications. The water amount used was 200 L/ha.

[2] = tested on: spring oilseed rape variety ABILITY; assay: as above; type: in vivo, Brassica napus; settings: for pest or weed control at 50 g/ha: AI dose rate 50 gai/ha
Excerpt: as §1

[3] = biological target: T1, mixture of S653N and W574L ALS enzymes (Arabidopsis thaliana, UniProt P17597); type: biochemical; settings: for pI50 S653N & W574L: calculated for a mixture of equal activities of the two enzymes, pI50=3.0 used where measured <4; for Resistance Factor S653N & W574L: relative to WT, calculated
T1 construct: crude E. coli extract was used
Experimental: (§2) Assays were initiated by adding enzyme and terminated after 75 min incubation at 30° C. by the addition to 40 μl 0.5 M H2SO4. […] Reaction velocities were tiffed to the Michalis-Menten equation with the XLFit curve fitting program.
(§3) To characterize the response of a mixture of two different ALS enzymes to a given ALS inhibitor the following assumptions were made: • a inhibition is competitive and reversible • b. in the absence of inhibitor, equal activities of the ALS (mutant) enzymes 1 and 2 are present
(§4) Using experimentally determined pI50-values for various ALS-inhibiting herbicides, enzyme activities at different inhibitor concentrations were calculated (see Theory) for each ALS enzyme. Total ALS activity at any given inhibitor concentration is the sum of the activity of (mutant) enzyme 1 and (mutant) enzyme 2. If the experimentally determined pI50-value was <4, pI50=3.0 was used for the calculations. If the calculated pI50-value was 3.0, the pI50 was redefined as <4.

[4] = biological target: T2, mixture of P197S and W574L ALS enzymes (Arabidopsis thaliana, UniProt P17597); type: biochemical; settings: for pI50 P197S & W574L: calculated for a mixture of equal activities of the two enzymes, pI50=3.0 used where measured <4; for Resistance Factor P197S & W574L: relative to WT, calculated
T2 construct: crude E. coli extract was used
Experimental: as §2, §3, §4

[5] = biological target: T3, Arabidopsis thaliana P197S-mutant ALS (Arabidopsis thaliana, UniProt P17597, E575Q/P197S); assay: biochemical; settings: for IC50: read-out: pI50 P197S (converted); for Resistance Factor P197S: relative to WT, from measured pI50
T3 construct: vector-encoded N-terminal fusion of pET-32a(+) (Trx/His/S tag by own knowledge); made in house; host or cells: Escherichia coli AD494
Experimental: (§5) Bacteria were grown at 37° C. in LB-medium containing 100 mg/1 carbenicillin and 25 mg/1 canamycin, induced with 1 mM isopropyl-β-D-thiogalactopyranoside at an OD600 of 0.6, cultivated for 16 hours at 18° C. and harvested by centrifugation. Bacterial pellets were resusupended in 100 mM sodium phosphate buffer pH 7.0 containing 0.1 mM thiamine-pyrophosphate, 1 mM MgCl2, and 1 μM FAD at a concentration of 1 gram wet weight per 25 ml of buffer and disrupted by sonification. The crude protein extract obtained after centrifugation was used for ALS activity measurements.
as §2

[6] = biological target: T4, Arabidopsis thaliana S653N-mutant ALS (Arabidopsis thaliana, UniProt P17597, E575Q/S653N); assay: biochemical; settings: for IC50: read-out: pI50 S653N (converted); for Resistance Factor S653N: relative to WT, from measured pI50
T4 construct: vector-encoded N-terminal fusion of pET-32a(+) (Trx/His/S tag by own knowledge); made in house; host or cells: Escherichia coli AD494
Experimental: as §5, §2

[7] = biological target: T5, Arabidopsis thaliana wild-type ALS (Arabidopsis thaliana, UniProt P17597, E575Q); assay: biochemical; settings: measured, crude extract of E. coli expressed enzyme; for IC50: read-out: pI50 WT (converted)
T5 construct: vector-encoded N-terminal fusion of pET-32a(+) (Trx/His/S tag by own knowledge); made in house; host or cells: Escherichia coli AD494
Experimental: as §5, §2

[8] = biological target: T6, Arabidopsis thaliana W574L-mutant ALS (Arabidopsis thaliana, UniProt P17597, E575Q/W574L); assay: biochemical; settings: for IC50: read-out: pI50 W574L (converted); for Resistance Factor W574L: relative to WT, from measured pI50
T6 construct: vector-encoded N-terminal fusion of pET-32a(+) (Trx/His/S tag by own knowledge); made in house; host or cells: Escherichia coli AD494
Experimental: as §5, §2

[9] = measured, crude extract of E. coli expressed enzyme
[10] = Brassica napus, topical, 432 h, HETO108-HETO121, field, 18 days after application, 0%=no phytotoxic effects, 100%=all plants killed, read-out: % phytotox
[11] = Brassica napus, topical, 432 h, ABILITY, field, 18 days after application, 0%=no phytotoxic effects, 100%=all plants killed, read-out: % phytotox
[12] = Brassica napus, topical, 432 h, read-out: % phytotox

Compound: COc1cc(OC)nc(NC(=O)NS(=O)(=O)N(C)S(C)(=O)=O)n1 [Amidosulfuron, amidosulfuron]
- pest or weed control at 30 g/ha ([1]; Brassica napus, topical, 432 h, HETO108-HETO121, AI dose rate 30 gai/ha, field, 18 days after application, 0%=no phytotoxic effects, 100%=all plants killed, read-out: % phytotox): 3%
- pest or weed control at 30 g/ha ([2]; Brassica napus, topical, 432 h, ABILITY, AI dose rate 30 gai/ha, field, 18 days after application, 0%=no phytotoxic effects, 100%=all plants killed, read-out: % phytotox): 98%
- pI50 S653N & W574L [3]: 5.6
- Resistance Factor S653N & W574L [3]: 13
- pI50 P197S & W574L [4]: <4
- Resistance Factor P197S & W574L [4]: >501
- IC50 [5, 9]: > 100000 nM
- Resistance Factor P197S [5]: >501
- IC50 [6, 9]: 7.94 nM
- Resistance Factor S653N [6]: 0
- IC50 [7]: 200 nM
- IC50 [8, 9]: > 100000 nM
- Resistance Factor W574L [8]: >501

Compound: COc1cc(OC)nc(Oc2cccc(Oc3nc(OC)cc(OC)n3)c2C(=O)O)n1 [Bispyribac-sodium, bispyribac-sodium]
- pest or weed control at 50 g/ha [1, 10]: 75%
- pest or weed control at 50 g/ha [2, 11]: 100%
- pI50 S653N & W574L [3]: 5.8
- Resistance Factor S653N & W574L [3]: 79
- pI50 P197S & W574L [4]: 6.1
- Resistance Factor P197S & W574L [4]: 40
- IC50 [5, 9]: 79.4 nM
- Resistance Factor P197S [5]: 4
- IC50 [6, 9]: 251 nM
- Resistance Factor S653N [6]: 13
- IC50 [7]: 20 nM
- IC50 [8, 9]: 7940 nM
- Resistance Factor W574L [8]: 398

Compound: CCOc1ccccc1OS(=O)(=O)NC(=O)Nc1nc(OC)cc(OC)n1 [Ethoxysulfuron, ethoxysulfuron]
- pest or weed control at 180 g/ha ([1]; Brassica napus, topical, 432 h, HETO108-HETO121, AI dose rate 180 gai/ha, field, 18 days after application, 0%=no phytotoxic effects, 100%=all plants killed, read-out: % phytotox): 70%
- pest or weed control at 180 g/ha ([2]; Brassica napus, topical, 432 h, ABILITY, AI dose rate 180 gai/ha, field, 18 days after application, 0%=no phytotoxic effects, 100%=all plants killed, read-out: % phytotox): 100%

Compound: COc1cc(OC)nc(NC(=O)NS(=O)(=O)c2ncccc2C(F)(F)F)n1 [Flazasulfuron, flazasulfuron]
- pest or weed control at 50 g/ha [1, 10]: 80%
- pest or weed control at 50 g/ha [2, 11]: 100%
- pI50 S653N & W574L [3]: 7.5
- Resistance Factor S653N & W574L [3]: 40
- pI50 P197S & W574L [4]: 6.2
- Resistance Factor P197S & W574L [4]: 794
- IC50 [5, 9]: 100 nM
- Resistance Factor P197S [5]: 126
- IC50 [6, 9]: 0.316 nM
- Resistance Factor S653N [6]: 0
- IC50 [7]: 0.794 nM
- IC50 [8, 9]: 3160 nM
- Resistance Factor W574L [8]: 3981

Compound: COc1ncc(F)c2nc(S(=O)(=O)Nc3c(F)cccc3F)nn12 [Florasulam, florasulam]
- % phytotox ([1]; HETO108-HETO121, AI dose rate 10 gai/ha, field, 18 days after application, 0%=no phytotoxic effects, 100%=all plants killed): 70%
- % phytotox ([2]; ABILITY, AI dose rate 10 gai/ha, field, 18 days after application, 0%=no phytotoxic effects, 100%=all plants killed): 100%
- pI50 S653N & W574L [3]: 5.7
- Resistance Factor S653N & W574L [3]: 126
- pI50 P197S & W574L [4]: 5.5
- Resistance Factor P197S & W574L [4]: 200
- pI50 P197S [5, 9]: 6.4
- Resistance Factor P197S [5]: 25
- pI50 S653N [6, 9]: 6.9
- Resistance Factor S653N [6]: 8
- pI50 WT [7]: 7.8
- pI50 W574L [8, 9]: 4.6
- Resistance Factor W574L [8]: 1585

Compound: COC(=O)c1ccc(C(F)(F)F)nc1S(=O)(=O)NC(=O)Nc1nc(OC)cc(OC)n1 [Flupyrsulfuron-methyl, flupyrsulfuron-methyl-sodium]
- pest or weed control at 10 g/ha [1, 12]: 35%
- pest or weed control at 10 g/ha [2, 12]: 100%

Compound: COC(=O)c1ccc(CNS(C)(=O)=O)cc1S(=O)(=O)NC(=O)Nc1nc(OC)cc(OC)n1 [Mesosulfaron-methyl, mesosulfuron-methyl]
- % phytotox ([1]; HETO108-HETO121, AI dose rate 15 gai/ha, field, 18 days after application, 0%=no phytotoxic effects, 100%=all plants killed): 30%
- % phytotox ([2]; ABILITY, AI dose rate 15 gai/ha, field, 18 days after application, 0%=no phytotoxic effects, 100%=all plants killed): 99%
- Resistance Factor S653N & W574L [3]: 200
- Resistance Factor P197S & W574L [4]: 794
- Resistance Factor P197S [5]: 79
- Resistance Factor S653N [6]: 16
- Resistance Factor W574L [8]: 31623

Compound: COC(=O)c1ccccc1S(=O)(=O)NC(=O)Nc1nc(C)nc(OC)n1 [Metsulfuron-methyl, metsulfuron-methyl]
- % phytotox ([1]; HETO108-HETO121, AI dose rate 8 gai/ha, field, 18 days after application, 0%=no phytotoxic effects, 100%=all plants killed): 73%
- % phytotox ([2]; ABILITY, AI dose rate 8 gai/ha, field, 18 days after application, 0%=no phytotoxic effects, 100%=all plants killed): 100%
- Resistance Factor S653N & W574L [3]: 79
- Resistance Factor P197S & W574L [4]: 251
- Resistance Factor P197S [5]: 50
- Resistance Factor S653N [6]: 6
- Resistance Factor W574L [8]: 1000

Compound: CCCOc1nn(C(=O)[N-]S(=O)(=O)c2ccccc2C(=O)OC)c(=O)n1C.[Na+] [Propoxycarbazone, propoxycarbazone-sodium]
- % phytotox ([1]; HETO108-HETO121, AI dose rate 70 gai/ha, field, 18 days after application, 0%=no phytotoxic effects, 100%=all plants killed): 65%
- % phytotox ([2]; ABILITY, AI dose rate 70 gai/ha, field, 18 days after application, 0%=no phytotoxic effects, 100%=all plants killed): 100%
- Resistance Factor S653N & W574L [3]: 100
- Resistance Factor P197S & W574L [4]: 200
- Resistance Factor P197S [5]: 158
- Resistance Factor S653N [6]: 25
- Resistance Factor W574L [8]: 316

Compound: COC(=O)c1ccccc1S(=O)(=O)NC(=O)N(C)c1nc(C)nc(OC)n1 [Tribenuron-methyl, tribenuron-methyl]
- pest or weed control at 20 g/ha ([1]; Brassica napus, topical, 432 h, HETO108-HETO121, AI dose rate 20 gai/ha, field, 18 days after application, 0%=no phytotoxic effects, 100%=all plants killed, read-out: % phytotox): 5%
- pest or weed control at 20 g/ha ([2]; Brassica napus, topical, 432 h, ABILITY, AI dose rate 20 gai/ha, field, 18 days after application, 0%=no phytotoxic effects, 100%=all plants killed, read-out: % phytotox): 99%

Compound: iodosulfuron-methyl-sodium [Iodosulfuron-methy-sodium]
- % phytotox ([1]; HETO108-HETO121, AI dose rate 7 gai/ha, field, 18 days after application, 0%=no phytotoxic effects, 100%=all plants killed): 43%
- % phytotox ([2]; ABILITY, AI dose rate 7 gai/ha, field, 18 days after application, 0%=no phytotoxic effects, 100%=all plants killed): 100%
- Resistance Factor S653N & W574L [3]: 79
- Resistance Factor P197S [5]: 158
- Resistance Factor S653N [6]: 10
- Resistance Factor W574L [8]: 631
